Assay results reported in patent publication US10688085B2, “Use of statin-based drug for treatment of EML4-ALK-positive non-small cell lung cancer progressing on ALK inhibitor” (University-Industry Foundation, Yonsei University, priority 2016, dated 2020).

Assays:
[1] = system: cell line resistant to the ALK inhibitor; test: Evaluation of antitumor efficacy of statin-based drugs; conditions: cell line resistant to the ALK inhibitor versus parental
Description: The results are illustrated in FIG. 4A.

YAP = test: Western blot of YAP phosphorylation, crizotinib-resistant cell line; assay type: cell-based
Description: YAP is accumulated in the nucleus to form a complex with TEAD when phosphorylation is suppressed, and is known as an oncogene which promotes the excessive proliferation of cancer cells and the metastasis of cancer by inducing the expression of a gene associated with cancer. In addition, YAP as a transcription factor has been reported to be involved even in the expression of EGFR and an EGFR ligand. Recently, it has been reported that the mevalonate pathway which is an important mechanism in cancer cell metabolism regulates YAP activity, and particularly, geranylgeranylation may directly affect YAP activity. […] The results are illustrated in FIG. 7. FIGS. 7A and 7B identify the expression pattern of YAP when GGPP and […] are treated, respectively through a western blot, and FIG. 7C illustrates whether YAP moves into the nucleus through an immunocytochemistry analysis.

[2] = system: p21, cleaved PARP, and cleaved caspase 3; test: Western blot of p21 and apoptosis-related proteins, crizotinib-resistant cell lines; assay type: cell-based
[3] = system: CR pool, CR #1, and CR #3 cell lines; test: Cell proliferation after adding mevalonate pathway byproducts to cerivastatin-treated cells; assay type: cell-based; conditions: CR #1, CR #3, byproduct added after cerivastatin treatment
Description: A statin-based drug is a suppressor of HMG-CoA reductase which is an enzyme converting 3-hydroxy-3-methylglutaryl coenzyme A (HMG-CoA) into mevalonic acid in the mevalonate pathway, and is known as a cholesterol-lowering agent, but is known to affect various intracellular signaling processes by suppressing the production of isoprenoids (Farnesyl pyrophosphate; […] GGPP) acting as a substrate for isoprenylation of a target protein among final byproducts of the mevalonate pathway in addition to cholesterol. Thus, after the present research team treated H3122 parental, CR pool, CR #1, and CR #3 cell lines with cerivastatin in order to see which one of the byproducts mediated by the mevalonate pathway is involved in acquiring resistance to an ALK inhibitor, the proliferation of cells was identified after mevalonate, GGPP, FPP, and squalene, which are byproducts of each step, were each added. The results are illustrated in FIG. 6A.

[4] = system: p21, cleaved caspase 3, PARP, YAP; test: Western blot of p21, cleaved caspase 3, PARP and YAP, ceritinib-resistant cell line; assay type: cell-based; conditions: cell line resistant to ceritinib
H3122 parental cells = test: FDA approved drug library growth inhibition selection, parental cells; assay type: cell-based; conditions: 1 μM for 72 hours
H3122 CR pool cells = test: FDA approved drug library growth inhibition selection, resistant cells; assay type: cell-based; conditions: 1 μM for 72 hours
vimentin = test: Western blot of vimentin expression; assay type: cell-based; conditions: cell lines resistant to an ALK inhibitor
Description: The results are illustrated in FIG. 13.

EGFR = test: Western blot of EGFR activity after verteporfin; assay type: cell-based; conditions: cell line that has acquired resistance to an ALK inhibitor; pretreatment with verteporfin
Description: The results are illustrated in FIG. 12.

AKT and ERK = test: Immunoblot of lower and bypass signaling pathway of ALK, ceritinib-resistant cell line; assay type: cell-based; conditions: cell line resistant to ceritinib
[5] = system: cell line that has acquired resistance to crizotinib; test: Cell survival rate of cell line that has acquired resistance to crizotinib after ALK/EGFR inhibitor treatment; assay type: cell-based; conditions: crizotinib-resistant H3122 cell line
Description: Subsequently, studies on the mechanism of acquiring resistance to an ALK inhibitor in the Experimental Examples were carried out by representatively using CR pool, CR #1, and CR #3.

[6] = added to cerivastatin-treated cells

Compound: CC(C)c1nc(N(C)S(C)(=O)=O)nc(-c2ccc(F)cc2)c1/C=C/[C@@H](O)C[C@@H](O)CC(=O)O [rosuvastatin]
- antitumor efficacies [1]: specifically exhibited antitumor efficacies against a cell line resistant to the ALK inhibitor

Compound: CC(C)=CCC/C(C)=C/CC/C(C)=C/CC/C(C)=C/COP(=O)(O)OP(=O)(O)O [GGPP, Geranylgeranyl pyrophosphate]
- phosphorylation of YAP (YAP; added together with cerivastatin): again reduced
- expression of cleaved PARP increased by cerivastatin [2, 6]: again decreased
- expression of cleaved caspase 3 increased by cerivastatin [2, 6]: again decreased
- expression of p21 increased by cerivastatin [2, 6]: again decreased
- proliferation of cells suppressed by cerivastatin [3]: restored

Compound: COC(=O)[C@H](CC(C)C)NC(=O)c1ccc(NC[C@@H](N)CS)cc1-c1cccc2ccccc12 [GGTI-298]
- phosphorylation of YAP (YAP; western blot, agent alone): increasing
- expression of cleaved PARP ([2]; western blot, agent alone): concentration dependently induced
- expression of cleaved caspase 3 ([2]; western blot, agent alone): concentration dependently induced
- expression of p21 ([2]; western blot, agent alone): concentration dependently induced
- expression of PARP [4]: concentration-dependently induced
- expression of p21 [4]: concentration-dependently induced

Compound: COc1cccc2c1C(=O)c1c(O)c3c(c(O)c1C2=O)C[C@@](O)(C(=O)CO)C[C@@H]3O[C@H]1C[C@H](N)[C@H](O)[C@H](C)O1 [doxorubicin]
- growth of cells (H3122 parental cells): suppressed the growth
- growth of cells (H3122 CR pool cells): suppressed the growth

Compound: CC(O)(CCO)CC(=O)O (stereo not shown) [mevalonate]
- proliferation of cells suppressed by cerivastatin [3]: restored

Compound: CC(=O)O[C@@]12CO[C@@H]1C[C@H](O)[C@@]1(C)C(=O)[C@H](O)C3=C(C)[C@@H](OC(=O)[C@H](O)[C@@H](NC(=O)OC(C)(C)C)c4ccccc4)C[C@@](O)([C@@H](OC(=O)c4ccccc4)[C@H]21)C3(C)C [docetaxel]
- growth of cells (H3122 parental cells): suppressed the growth
- growth of cells (H3122 CR pool cells): suppressed the growth

Compound: verteporfin
- expression of vimentin (vimentin): clearly decreased
- activity of EGFR (EGFR): concentration-dependently suppressed

Compound: CC(C)c1c(C(=O)Nc2ccccc2)c(-c2ccccc2)c(-c2ccc(F)cc2)n1CC[C@@H](O)C[C@@H](O)CC(=O)O [atorvastatin]
- antitumor efficacies [1]: specifically exhibited antitumor efficacies against a cell line resistant to the ALK inhibitor

Compound: CC(C)=CCC/C(C)=C/CC/C(C)=C/CC/C=C(\C)CC/C=C(\C)CCC=C(C)C [squalene]
- proliferation of cells suppressed by cerivastatin [3]: did not have any effect

Compound: CC(C)=CCC/C(C)=C/CC/C(C)=C/COP(=O)(O)OP(=O)(O)O [FPP, Farnesyl pyrophosphate]
- proliferation of cells suppressed by cerivastatin [3]: did not have any effect

Compound: Cc1cc(Nc2ncc(Cl)c(Nc3ccccc3S(=O)(=O)C(C)C)n2)c(OC(C)C)cc1C1CCNCC1 [ceritinib]
- activity of AKT (AKT and ERK): not suppressed
- activity of ERK (AKT and ERK): not suppressed
- proliferation of the cell line that had acquired resistance (cell survival rate) [5]: not suppressed
